# Measurements as given in patent US10667478B1, “Metribuzin tolerance alleles in soybean” (Syngenta Participations AG, priority 2017, dated 2020).
# Test system: Soybean
# Experiment: Metribuzin phytotoxicity screen of soybean lines in greenhouse pots
# Assay type: in vivo, Glycine max
# Settings: applied after planting, scored 16 days later
# Text: In the case of a visual metribuzin sensitivity detection system, a plant is rated for the percent of visual toxicity compared to a control plant which is sensitive to metribuzin.
# Soybean seeds were planted two seeds per pot in two inch pots with clay loam soil (1.36 o.m.). Six replications were arranged in a Randomized Complete Block Design in a greenhouse. Metribuzin was applied at 560 grams active ingredient per hectare after planting. Sixteen days later plants were scored for visual phytotoxicity scored as percent injury.
smiles,measurement,setting,value
"CSc1nnc(C(C)(C)C)c(=O)n1N [Metribuzin, metribuzin]",Injury (%) @ 560 g ai/ha,soybean line A1036478,0%
same,Injury (%) @ 560 g ai/ha,soybean line AR1111926,20%
same,Injury (%) @ 560 g ai/ha,soybean line AR1112922,0%
same,Injury (%) @ 560 g ai/ha,soybean line AR1210100,15%
same,Injury (%) @ 560 g ai/ha,soybean line AR1210104,45%
same,Injury (%) @ 560 g ai/ha,soybean line AR1210856,9%
same,Injury (%) @ 560 g ai/ha,soybean line AR1210886,0%
same,Injury (%) @ 560 g ai/ha,soybean line AR1211262,0%
same,Injury (%) @ 560 g ai/ha,soybean line AR1211948,44%
same,Injury (%) @ 560 g ai/ha,soybean line BK1011572,23%
same,Injury (%) @ 560 g ai/ha,soybean line BK1211980,17%
same,Injury (%) @ 560 g ai/ha,soybean line BY1210428,54%
same,Injury (%) @ 560 g ai/ha,soybean line BY1211100,49%
same,Injury (%) @ 560 g ai/ha,soybean line BY1212083,0%
same,Injury (%) @ 560 g ai/ha,soybean line BY1212201,3%
same,Injury (%) @ 560 g ai/ha,soybean line BY1212223,0%
same,Injury (%) @ 560 g ai/ha,soybean line BY1213080,0%
same,Injury (%) @ 560 g ai/ha,soybean line CC1210319,0%
same,Injury (%) @ 560 g ai/ha,soybean line CC1211481,12%
same,Injury (%) @ 560 g ai/ha,soybean line CC1211818,0%
same,Injury (%) @ 560 g ai/ha,soybean line CC1212005,35%
same,Injury (%) @ 560 g ai/ha,soybean line CC1215412,0%
same,Injury (%) @ 560 g ai/ha,soybean line CC1215903,0%
same,Injury (%) @ 560 g ai/ha,soybean line CC1215927,45%
same,Injury (%) @ 560 g ai/ha,soybean line CC1217018,0%
same,Injury (%) @ 560 g ai/ha,soybean line CC1217019,0%
same,Injury (%) @ 560 g ai/ha,soybean line CE1210923,0%
same,Injury (%) @ 560 g ai/ha,soybean line CE1210997,0%
same,Injury (%) @ 560 g ai/ha,soybean line CE1211033,37%
same,Injury (%) @ 560 g ai/ha,soybean line CE1211109,0%
same,Injury (%) @ 560 g ai/ha,soybean line CE1211211,14%
same,Injury (%) @ 560 g ai/ha,soybean line CE1211264,28%
same,Injury (%) @ 560 g ai/ha,soybean line CE1211339,0%
same,Injury (%) @ 560 g ai/ha,soybean line CE1211377,0%
same,Injury (%) @ 560 g ai/ha,soybean line CE1211403,0%
same,Injury (%) @ 560 g ai/ha,soybean line CE1211693,0%
same,Injury (%) @ 560 g ai/ha,soybean line CE1212024,0%
same,Injury (%) @ 560 g ai/ha,soybean line CE1213779,38%
same,Injury (%) @ 560 g ai/ha,soybean line CE1214014,47%
same,Injury (%) @ 560 g ai/ha,soybean line CE1214443,0%
same,Injury (%) @ 560 g ai/ha,soybean line CE1214602,0%
same,Injury (%) @ 560 g ai/ha,soybean line CE1214610,47%
same,Injury (%) @ 560 g ai/ha,soybean line G01010146,0%
same,Injury (%) @ 560 g ai/ha,soybean line GO1110272,54%
same,Injury (%) @ 560 g ai/ha,soybean line GO1110602,53%
same,Injury (%) @ 560 g ai/ha,soybean line LL511,92%
same,Injury (%) @ 560 g ai/ha,soybean line LL513N,2%
same,Injury (%) @ 560 g ai/ha,soybean line LL563N,5%
same,Injury (%) @ 560 g ai/ha,soybean line LL595N,96%
same,Injury (%) @ 560 g ai/ha,soybean line NE0912640,0%
same,Injury (%) @ 560 g ai/ha,soybean line NE1212391,0%
same,Injury (%) @ 560 g ai/ha,soybean line NE1214412,5%
same,Injury (%) @ 560 g ai/ha,soybean line NE1214737,0%
same,Injury (%) @ 560 g ai/ha,soybean line NE1215099,0%
same,Injury (%) @ 560 g ai/ha,soybean line OW1011073,11%
same,Injury (%) @ 560 g ai/ha,soybean line OW1011829,50%
same,Injury (%) @ 560 g ai/ha,soybean line OW1012353,17%
same,Injury (%) @ 560 g ai/ha,soybean line OW1113014,34%
same,Injury (%) @ 560 g ai/ha,soybean line OW1210742,45%
same,Injury (%) @ 560 g ai/ha,soybean line OW1212626,25%
same,Injury (%) @ 560 g ai/ha,soybean line OW1213195,28%
same,Injury (%) @ 560 g ai/ha,soybean line OW1213207,28%
same,Injury (%) @ 560 g ai/ha,soybean line OW1213282,23%
same,Injury (%) @ 560 g ai/ha,soybean line OW1213323,42%
same,Injury (%) @ 560 g ai/ha,soybean line S77-T7,23%
same,Injury (%) @ 560 g ai/ha,soybean line S78-G6,10%
same,Injury (%) @ 560 g ai/ha,soybean line SJ1114205,0%
same,Injury (%) @ 560 g ai/ha,soybean line SJ1210059,0%
same,Injury (%) @ 560 g ai/ha,soybean line SJ1210512,11%
same,Injury (%) @ 560 g ai/ha,soybean line SJ1210526,0%
same,Injury (%) @ 560 g ai/ha,soybean line SJ1210678,0%
same,Injury (%) @ 560 g ai/ha,soybean line SJ1210829,0%
same,Injury (%) @ 560 g ai/ha,soybean line SJ1210844,0%
same,Injury (%) @ 560 g ai/ha,soybean line SJ1210862,0%
same,Injury (%) @ 560 g ai/ha,soybean line SJ1210867,25%
same,Injury (%) @ 560 g ai/ha,soybean line SJ1211190,55%
same,Injury (%) @ 560 g ai/ha,soybean line SJ1212283,0%
same,Injury (%) @ 560 g ai/ha,soybean line SJ1213014,0%
same,Injury (%) @ 560 g ai/ha,soybean line SJ1213512,0%
same,Injury (%) @ 560 g ai/ha,soybean line SJ1213805,48%
same,Injury (%) @ 560 g ai/ha,soybean line WN1116259,0%
same,Injury (%) @ 560 g ai/ha,soybean line WN1118256,47%
same,Injury (%) @ 560 g ai/ha,soybean line WN1118297,0%
